# Assays:
# Assay in all cases: In vitro antibacterial evaluation: minimum inhibitory concentration (MIC), broth dilution method
# Assay type in all cases: cell-based
# Escherichia coli = settings: broth dilution, 18 hours at 35° C.
# Enterococcus sp. = settings: broth dilution, 18 hours at 35° C.
# Summary of the method: (§1)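 Inoculum: 5×10^5 CFU/mL. Range: 64-0.06 μg/mL. Medium: Muller-Hinton II […]; NCCLS M7-A2 broth dilution. Endpoint: lowest concentration inhibiting growth. Strains include methicillin-, penicillin- and/or vancomycin-resistant clinical isolates.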
# Staphylococcus sp. = settings: broth dilution, 18 hours at 35° C.; for MIC Staphylococcus aureus-SMITH (GC 4543): strain SMITH GC 4543
# Summary of the method: as §1
# Streptococcus sp. = settings: broth dilution, 18 hours at 35° C.
# Summary of the method: as §1
# [1] = Enterococcus faecalis (ATCC 29212)
# [2] = Enterococcus faecalis (GC 2242)
# [3] = Enterococcus faecalis (GC 2691)
# [4] = Enterococcus faecalis (GC 3059)
# [5] = Enterococcus faecalis (GC 4552)
# [6] = Enterococcus faecalis (GC 4553)
# [7] = Enterococcus faecalis (GC 4554)
# [8] = Enterococcus faecalis (GC 6189)
# [9] = Streptococcus agalactiae (GC 4564)
# [10] = Streptococcus pneumoniae (ATCC 6301)
# [11] = Streptococcus pneumoniae (GC 1894)
# [12] = Streptococcus pneumoniae (GC 4565)
# [13] = Streptococcus pyogenes (GC 4563)
smiles,measurement,setting,value
CC(c1ccccc1)C1NC(=O)CNC(=O)C(CO)NC(=O)C(C(O)C2CNC(=N)N2C2OC(CO)C(O)C(O)C2O)NC(=O)C(C(O)C2CNC(=N)N2)NC(=O)C(Cc2ccc3oc(SCC(=O)c4ccc(Cl)cc4)nc3c2)NC1=O (stereo not shown) [Example 49],MIC Escherichia coli (ATCC 25922),Escherichia coli,16 µg/mL
same,MIC Escherichia coli (GC 4559),Escherichia coli,8 µg/mL
same,MIC Escherichia coli (GC 4560),Escherichia coli,4 µg/mL
same,MIC Enterococcus avium (GC 4558),Enterococcus sp.; Enterococcus avium (GC 4558),4 µg/mL
same,MIC Enterococcus faecalis (ATCC 29212),Enterococcus sp.; [1],16 µg/mL
same,MIC Enterococcus faecalis (GC 2242),Enterococcus sp.; [2],16 µg/mL
same,MIC Enterococcus faecalis (GC 2691),Enterococcus sp.; [3],16 µg/mL
same,MIC Enterococcus faecalis (GC 3059),Enterococcus sp.; [4],32 µg/mL
same,MIC Enterococcus faecalis (GC 4552),Enterococcus sp.; [5],2 µg/mL
same,MIC Enterococcus faecalis (GC 4553),Enterococcus sp.; [6],4 µg/mL
same,MIC Enterococcus faecalis (GC 4554),Enterococcus sp.; [7],16 µg/mL
same,MIC Enterococcus faecalis (GC 6189),Enterococcus sp.; [8],16 µg/mL
same,MIC Enterococcus faecium (GC 2243),Enterococcus sp.; Enterococcus faecium (GC 2243),8 µg/mL
same,MIC Enterococcus faecium (GC 4556),Enterococcus sp.; Enterococcus faecium (GC 4556),8 µg/mL
same,MIC Enterococcus faecium (GC 4557),Enterococcus sp.; Enterococcus faecium (GC 4557),2 µg/mL
same,MIC Enterococcus avium (GC 4558),Enterococcus sp.,4 µg/mL
same,MIC Enterococcus faecalis (ATCC 29212),Enterococcus sp.,16 µg/mL
same,MIC Enterococcus faecalis (GC 2242),Enterococcus sp.,16 µg/mL
same,MIC Enterococcus faecalis (GC 2691),Enterococcus sp.,16 µg/mL
same,MIC Enterococcus faecalis (GC 3059),Enterococcus sp.,32 µg/mL
same,MIC Enterococcus faecalis (GC 4552),Enterococcus sp.,2 µg/mL
same,MIC Enterococcus faecalis (GC 4553),Enterococcus sp.,4 µg/mL
same,MIC Enterococcus faecalis (GC 4554),Enterococcus sp.,16 µg/mL
same,MIC Enterococcus faecalis (GC 6189),Enterococcus sp.,16 µg/mL
same,MIC Enterococcus faecium (GC 2243),Enterococcus sp.,8 µg/mL
same,MIC Enterococcus faecium (GC 4556),Enterococcus sp.,8 µg/mL
same,MIC Enterococcus faecium (GC 4557),Enterococcus sp.,2 µg/mL
same,MIC Coagulase Negative Staphylococcus (GC 4547),Staphylococcus sp.,4 µg/mL
same,MIC Coagulase Negative Staphylococcus (GC 4548),Staphylococcus sp.,2 µg/mL
same,MIC Coagulase Negative Staphylococcus (GC 4549),Staphylococcus sp.,1 µg/mL
same,MIC Coagulase Negative Staphylococcus (GC 4551),Staphylococcus sp.,4 µg/mL
same,MIC Staphylococcus aureus SMITH (GC 4543),Staphylococcus sp.,2 µg/mL
same,MIC Staphylococcus haemolyticus (GC 4546),Staphylococcus sp.,1 µg/mL
same,MIC Staphylococcus aureus-SMITH (GC 4543),Staphylococcus sp.,2 µg/mL
same,MIC Streptococcus agalactiae (GC 4564),Streptococcus sp.; [9],4 µg/mL
same,MIC Streptococcus pneumoniae (ATCC 6301),Streptococcus sp.; [10],8 µg/mL
same,MIC Streptococcus pneumoniae (GC 1894),Streptococcus sp.; [11],8 µg/mL
same,MIC Streptococcus pneumoniae (GC 4565),Streptococcus sp.; [12],8 µg/mL
same,MIC Streptococcus pyogenes (GC 4563),Streptococcus sp.; [13],2 µg/mL
same,MIC Streptococcus agalactiae (GC 4564),Streptococcus sp.,4 µg/mL
same,MIC Streptococcus pneumoniae (ATCC 6301),Streptococcus sp.,8 µg/mL
same,MIC Streptococcus pneumoniae (GC 1894),Streptococcus sp.,8 µg/mL
same,MIC Streptococcus pneumoniae (GC 4565),Streptococcus sp.,8 µg/mL
same,MIC Streptococcus pyogenes (GC 4563),Streptococcus sp.,2 µg/mL
"CC(c1ccccc1)C1NC(=O)CNC(=O)C(CO)NC(=O)C(C(O)C2CNC(=N)N2C2OC(CO)C(O)C(O)C2O)NC(=O)C(C(O)C2CNC(=N)N2)NC(=O)C(Cc2ccc(O)c(NC(=O)c3ccccc3)c2)NC1=O (stereo not drawn) [Example 17, Cyclo[glycyl-β-methylphenylalanyl-3-(benzamido)tyrosyl-3-(2-iminoimidazolidin-4-yl)seryl-3-(3-hexopyranosyl-2-iminoimidazolidin-4-yl)serylseryl]]",MIC Escherichia coli (ATCC 25922),Escherichia coli,64 µg/mL
same,MIC Escherichia coli (GC 4559),Escherichia coli,32 µg/mL
same,MIC Escherichia coli (GC 4560),Escherichia coli,16 µg/mL
same,MIC Enterococcus avium (GC 4558),Enterococcus sp.; Enterococcus avium (GC 4558),64 µg/mL
same,MIC Enterococcus faecalis (ATCC 29212),Enterococcus sp.; [1],>64 µg/mL
same,MIC Enterococcus faecalis (GC 2242),Enterococcus sp.; [2],>64 µg/mL
same,MIC Enterococcus faecalis (GC 2691),Enterococcus sp.; [3],>64 µg/mL
same,MIC Enterococcus faecalis (GC 3059),Enterococcus sp.; [4],>64 µg/mL
same,MIC Enterococcus faecalis (GC 4552),Enterococcus sp.; [5],>64 µg/mL
same,MIC Enterococcus faecalis (GC 4553),Enterococcus sp.; [6],>64 µg/mL
same,MIC Enterococcus faecalis (GC 4554),Enterococcus sp.; [7],>64 µg/mL
same,MIC Enterococcus faecalis (GC 6189),Enterococcus sp.; [8],>64 µg/mL
same,MIC Enterococcus faecium (GC 2243),Enterococcus sp.; Enterococcus faecium (GC 2243),>64 µg/mL
same,MIC Enterococcus faecium (GC 4556),Enterococcus sp.; Enterococcus faecium (GC 4556),64 µg/mL
same,MIC Enterococcus faecium (GC 4557),Enterococcus sp.; Enterococcus faecium (GC 4557),64 µg/mL
same,MIC Enterococcus avium (GC 4558),Enterococcus sp.,64 µg/mL
same,MIC Enterococcus faecalis (ATCC 29212),Enterococcus sp.,>64 µg/mL
same,MIC Enterococcus faecalis (GC 2242),Enterococcus sp.,>64 µg/mL
same,MIC Enterococcus faecalis (GC 2691),Enterococcus sp.,>64 µg/mL
same,MIC Enterococcus faecalis (GC 3059),Enterococcus sp.,>64 µg/mL
same,MIC Enterococcus faecalis (GC 4552),Enterococcus sp.,>64 µg/mL
same,MIC Enterococcus faecalis (GC 4553),Enterococcus sp.,>64 µg/mL
same,MIC Enterococcus faecalis (GC 4554),Enterococcus sp.,>64 µg/mL
same,MIC Enterococcus faecalis (GC 6189),Enterococcus sp.,>64 µg/mL
same,MIC Enterococcus faecium (GC 2243),Enterococcus sp.,>64 µg/mL
same,MIC Enterococcus faecium (GC 4556),Enterococcus sp.,64 µg/mL
same,MIC Enterococcus faecium (GC 4557),Enterococcus sp.,64 µg/mL
same,MIC Staphylococcus aureus-SMITH (GC 4543),Staphylococcus sp.,>64 µg/mL
same,MIC Streptococcus agalactiae (GC 4564),Streptococcus sp.; [9],>64 µg/mL
same,MIC Streptococcus pneumoniae (ATCC 6301),Streptococcus sp.; [10],>64 µg/mL
same,MIC Streptococcus pneumoniae (GC 1894),Streptococcus sp.; [11],64 µg/mL
same,MIC Streptococcus pneumoniae (GC 4565),Streptococcus sp.; [12],>64 µg/mL
same,MIC Streptococcus pyogenes (GC 4563),Streptococcus sp.; [13],>64 µg/mL
same,MIC Streptococcus agalactiae (GC 4564),Streptococcus sp.,>64 µg/mL
same,MIC Streptococcus pneumoniae (ATCC 6301),Streptococcus sp.,>64 µg/mL
same,MIC Streptococcus pneumoniae (GC 1894),Streptococcus sp.,64 µg/mL
same,MIC Streptococcus pneumoniae (GC 4565),Streptococcus sp.,>64 µg/mL
same,MIC Streptococcus pyogenes (GC 4563),Streptococcus sp.,>64 µg/mL

# Source: patent publication US8247211B2, “Glycopeptide antibiotics” (American Cyanamid Company, priority 2001, dated 2012)
